# Measurements: PMC3030572, “Antamanide, a Derivative of Amanita phalloides, Is a Novel Inhibitor of the Mitochondrial Permeability Transition Pore” (PLoS ONE, 2011)
# “Also recorded” adds a separate entry of the source. Like-named read-outs stand apart in the source and are kept apart here.
# Assays:
# [1] = test system: mitochondrial permeability transition pore (PTP), wild-type fibroblasts; assay: CRC assay, mitochondria isolated from wild-type mouse fibroblasts; type: biochemical; conditions: Figure 3B
# Description: (§1) Figure 3 Effect of AA on respiration and PTP opening in mitochondria of wild-type or CyP-D knock-out mouse fibroblasts. A, upper part: Western blot analysis assessing CyP-D expression in fibroblasts obtained from either wild-type or CyP-D knock-out mice; HKII was utilized to verify protein load; lower part: representative experiment showing oxygen consumption as assessed by polarography (see Methods) in mitochondria isolated from wild-type fibroblasts in the absence (a) or presence (b) of 8 µM AA. Experiments were started by adding 0.6 mg of mitochondria (Mito), followed by 100 µM ADP and 50 µM 2,4-dinitrophenol (DNP) (arrows). Each experiment was repeated at least three times. Oxygen consumption is reported as percentage of initial value on the y axis. B, bar graphs report the ratio between the CRC detected in the presence (CRC) and absence (CRC0) of increasing concentrations of AA, in mitochondria from either wild-type fibroblasts (left) or CyP-D knock-out fibroblasts (right).
# Mitochondria were isolated either from livers of C57BL/6 mice through sequential centrifugations, or from cells, as described. To obtain mitochondria, cells were disrupted with a glass-Teflon potter in a buffer composed by 250 mM sucrose, 10 mM Tris-HCl, 0.1 mM EGTA-Tris, pH 7.4. Nuclei and plasma membrane fractions were separated by a first mild centrifugation (700× g, 10 min), and mitochondria were then spinned down at a higher speed (7000× g, 10 min). All procedures were carried out at 0–4°C.
# PTP opening was detected as a fluorescence increase.
# [2] = test system: mitochondrial permeability transition pore (PTP), wild-type fibroblasts; type: cell-based, mouse; conditions: Figure 4C
# Description: A, B, PTP opening of digitonized wild-type (A) or CyP-D knock-out (B) fibroblasts was measured with the whole-cell CRC assay. Experiments were started by the addition of digitonized cells (not shown) followed by pulses of Ca^2+ (5 µM each) and are plotted as in Figure 1B. The use of AA is shown with a red trace. Alamethicin (Alm, 1 µM) was added at the end of each measurement to fully release Ca^2+ from intracellular stores. […] D, isomerase activity assay (see Materials and Methods): after addition of the substrate peptide N-succinyl-Ala-Ala-cis-trans-Pro-Phe-p-nitroanilide (arrow), chimotrypsin cleaves the trans-isomeric form, causing a rise in absorbance.
# The Ca^2+ retention capacity (CRC) assay was used to assess PTP opening following trains of Ca^2+ pulses and measured fluorimetrically at 25°C in the presence of the Ca^2+ indicator Calcium Green-5N (1 µM; λexc: 505 nm; λem: 535 nm; Molecular Probes). […] Digitonin was then eliminated and the number of cells carefully assessed before starting each experiment. […] Cells or mitochondria were then exposed to Ca^2+ spikes, and fluorescence drops were used to assess mitochondrial Ca^2+ uptake. PTP opening was detected as a fluorescence increase. Calcium Green-5N fluorescence was measured either with a fluorescence spectrometer LS50B (Perkin Elmer, Waltham, MA) or with a Fluoroskan Ascent FL fluorimeter (Thermo Electron Corporation, Waltham, MA).
# [3] = test system: mitochondria isolated from wild-type fibroblasts; assay: mitochondrial respiration assay, wild-type fibroblast mitochondria; type: biochemical, mouse; conditions: 8 µM AA; polarography, Clark electrode, 25°C; repeated at least three times
# Description: as §1, with “(right). […] Results are mean±SD of at least 4 experiments.” for “(right).”
# Mitochondrial oxygen consumption was measured polarographically at 25°C with a Clark oxygen electrode (Yellow Springs Instruments, OH, USA). Mitochondria (0.6 mg per experimental point) were incubated in a solution of 130 mM KCl, 10 mM Tris-Mops, 1 mM Pi-Tris, 20 mM EGTA-Tris and 2 µM rotenone/5 mM succinate to assay basal respiration (state 4). […]
# [4] = test system: membrane permeabilization by phalloidin; assay: membrane permeabilization by phalloidin; type: cell-based; conditions: data not shown
# HeLa cells = type: cell-based, human; conditions: clotrimazole; data not shown
substance,measurement,setting,value
Antamanide [AA],CRC/CRC0: difference from CRC of untreated mitochondria,"[1]; AA at various concentrations, mean±SD of at least 4 experiments, Student's t test",significant difference (Student's t test analysis; *: p<0.01)
same,additivity of PTP inhibition with CsA,[1]; combination with CsA,not enhanced by CsA; also recorded: not additive
same,PTP inhibition (CRC),"[1]; isolated mitochondria, 25°C",AA inhibited the pore in mitochondria from wild-type fibroblasts
same,PTP inhibition (CRC/CRC0),"[2]; digitonized wild-type cells, mean±SD of at least 4 experiments",display an inhibitory effect on the PTP in wild-type
same,CRC/CRC0: difference from CRC of untreated mitochondria,"[2]; wild-type fibroblasts, Student's t test",significant difference (Student's t test analysis; *: p<0.01)
same,oxygen consumption,[3],unaffected
same,inhibition of membrane permeabilization by phalloidin,[4],inhibits membrane permeabilization by phalloidin
same,inhibition of clotrimazole-induced cell death,HeLa cells,inhibited the process
